{"source": "patent US4943581A", "about": "“Isoquinolinesulfonamides” (Hokuriku Pharmaceutical Co., Ltd., priority 1988, dated 1990)", "key": {"[1]": {"tested_on": "smooth muscle of the blood vessel (superior mesenteric artery)", "test": "Relaxation effect on smooth muscle of blood vessel (spiral specimen of superior mesenteric artery contracted with 20 mM KCl)", "conditions": "Oryctolagus cuniculus; concentration giving 50% relaxation; contraction induced by 20 mM KCl taken as 100%; 37°±0.5° C.; rabbit superior mesenteric artery; read-out: ED50 (the source's name)", "procedure": "The extracted blood vessels were cut in the usual way into the form of spirals, and a specimen of 1.5-2.5 mm in width and 20-30 mm in length was formed. The spiral specimen was suspended in 20 ml organ bath comprising Krebs-Henseleit's solution, after which a tension of 2.0-0.5 g was loaded. The nutrient solution was warmed at 37°±0.5° C. and ventilated by mixed gas of 95% oxygen and 5% carbon dioxide. The lower end was fixed, whereas the upper end was attached to a force-displacement transducer (SB-1T) manufactured by Nihon Koden Company. The change of tension was recorded isometrically. The specimen was suspended for at least 60 minutes before the test was begun, and the nutrient solution was exchanged every 15 minutes to conduct the experiment in the meantime.\nThe relaxation effect upon the smooth muscle of the blood vessel was tested. Previously, the spiral specimen had been contracted with 20 mM of KCl and maintained at a certain tension; thereafter the test agent was added cumulatively. Contraction induced by 20 mM KCl was taken as 100% and the relaxation effect of the test agent was represented by ED50 which was the concentration of the agent at which only 50% of the muscles remained shrunken."}, "[2]": {"target": "T1, myosin light-chain kinase (Gallus gallus, UniProt P11799)", "T1 construct": "myosin light chain kinase (prepared from the smooth muscles of chicken gizzard); from tissue; host or cells: smooth muscle of chicken gizzard (kinase); cattle brain (calmodulin)", "T1 sequence (P11799 935-1906)": "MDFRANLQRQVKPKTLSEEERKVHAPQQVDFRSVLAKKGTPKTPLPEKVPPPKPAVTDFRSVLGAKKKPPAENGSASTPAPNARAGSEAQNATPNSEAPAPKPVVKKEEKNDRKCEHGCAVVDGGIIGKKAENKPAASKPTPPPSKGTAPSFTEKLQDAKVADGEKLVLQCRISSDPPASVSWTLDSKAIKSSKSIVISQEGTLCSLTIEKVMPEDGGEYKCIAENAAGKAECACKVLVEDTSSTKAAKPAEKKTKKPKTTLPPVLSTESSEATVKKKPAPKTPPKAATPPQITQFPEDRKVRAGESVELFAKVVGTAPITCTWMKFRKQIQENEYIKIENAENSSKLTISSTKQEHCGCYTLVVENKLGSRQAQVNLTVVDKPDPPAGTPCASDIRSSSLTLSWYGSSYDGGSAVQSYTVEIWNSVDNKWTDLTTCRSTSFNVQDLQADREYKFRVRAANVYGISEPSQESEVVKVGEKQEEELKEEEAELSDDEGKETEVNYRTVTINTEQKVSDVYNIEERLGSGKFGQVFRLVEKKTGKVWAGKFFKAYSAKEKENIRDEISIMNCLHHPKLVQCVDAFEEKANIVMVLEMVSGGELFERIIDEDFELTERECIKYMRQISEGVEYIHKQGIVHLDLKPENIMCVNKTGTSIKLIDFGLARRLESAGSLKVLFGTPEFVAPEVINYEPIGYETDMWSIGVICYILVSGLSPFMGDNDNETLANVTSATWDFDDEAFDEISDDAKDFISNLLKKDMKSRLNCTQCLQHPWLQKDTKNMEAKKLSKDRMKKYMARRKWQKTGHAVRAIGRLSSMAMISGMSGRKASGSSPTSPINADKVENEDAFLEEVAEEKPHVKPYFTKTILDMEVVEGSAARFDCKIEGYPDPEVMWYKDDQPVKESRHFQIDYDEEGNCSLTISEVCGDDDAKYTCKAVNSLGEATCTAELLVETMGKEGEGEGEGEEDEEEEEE", "test": "Inhibition of myosin light-chain kinase (32P incorporation from [γ-32P] ATP into myosin light chain)", "type": "biochemical", "conditions": "enzymatic activity depression of 50%; chicken gizzard; 200 μM CaCl2, 80 ng calmodulin, pH 7.0, 30 °C", "procedure": "A myosin light chain of the smooth muscles of chicken gizzard was used as a substrate and the amount of radioactive phosphoric acid incorporated from [γ-32P] ATP into the substrate-protein was measured for a determination of the activity of the enzyme. The reaction solution, in an amount of 200 μl as a whole, was constituted from 25 mM of Tris-HCl(pH 7.0), 10 mM MgCl2, 40 μg of myosin light chain (obtained by preparing myosin from the smooth muscle of chicken gizzard followed by guanidine denaturization), 200 μM of CaCl2, 80 ng of calmodulin (prepared from cattle brain), myosin light chain kinase (prepared from the smooth muscles of chicken gizzard), and agents of various concentrations. The reaction was started by the addition of 20 μl of 100 μM [γ-32P] ATP at 30 ° C., and stopped by the addition of 0.5 ml of 20% TCA. After the reaction was stopped, 3 ml of 5% TCA and 0.1 ml of 1 mg/ml albumin solution were added into the reaction mixture, the resulting solution was centrifuged, and the obtained acid-insoluble protein was fixed on the bottom of a test tube. Further, the supernatant was removed, 3 ml of 5% TCA was added into the residue, and the solution was centrifuged. […] The precipitated protein was dissolved with 2 ml of 1 N NaOH, transferred to a vial containing about 10 ml of water, and measured for Cherenkov effect by a liquid scintillation counter. […]"}}, "note": "Counter-ions that a name gives are not always drawn.", "data": [{"smiles": "NCCNS(=O)(=O)c1ccc(Cl)c2ccncc12", "note": "[Example 1, N-(2-Aminoethyl)-5-chloroisoquinoline-8-sulfonamide 2 hydrochloride]", "values": [{"measurement": "EC50", "setting": "[1]", "value": 32, "unit": "µM"}, {"measurement": "IC50", "setting": "[2]", "value": 31, "unit": "µM"}]}]}
